From article PMC10184313, “Inhibition of Thiamine Diphosphate-Dependent Enzymes by Triazole-Based Thiamine Analogues” (ACS Medicinal Chemistry Letters, 2023)
Read-outs that look alike come from different tables or passages of the source.

Assays:
[1] = target: T1, porcine PDHc E1 (Sus scrofa, UniProt P29804); assay: PDHc E1 inhibitory activity assay (DCPIP reduction); type: biochemical; details: for L.E. (ligand efficiency) PDHc E1: binding energy in kcal mol^–1 derived from the KI value per heavy atom
T1 sequence (P29804 31-390): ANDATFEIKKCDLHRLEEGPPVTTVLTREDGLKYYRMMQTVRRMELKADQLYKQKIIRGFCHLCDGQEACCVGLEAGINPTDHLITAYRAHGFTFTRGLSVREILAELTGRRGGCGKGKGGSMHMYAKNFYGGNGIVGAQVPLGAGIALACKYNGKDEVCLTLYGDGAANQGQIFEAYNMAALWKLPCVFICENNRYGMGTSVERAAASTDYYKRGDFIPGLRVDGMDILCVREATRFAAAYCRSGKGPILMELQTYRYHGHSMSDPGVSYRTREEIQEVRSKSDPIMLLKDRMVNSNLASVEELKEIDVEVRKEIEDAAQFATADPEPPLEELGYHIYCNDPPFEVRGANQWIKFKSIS
Description: Enzyme assays – Methods and Results S1
Ligand efficiencies – Calculations S3 […]
Enzyme assays (Methods and Results)
PDHc E1 inhibitory activity assay. Porcine PDHc E1 was purchased from Sigma. Its activity was […]
determined by monitoring 2,6-dichlorophenolindophenol (DCPIP) reduction at 600 nm using a […]
microplate reader (CLARIOstar) and conducted as described 1,2 with some modifications. The percentage inhibition of compounds against porcine PDHc E1 was assayed at a final concentration of 250 µM. The reaction buffer (50 mM KH 2PO4 and 1 mM MgCl 2, pH 7) contained 50 µM ThDP (or 125 µM in the competition assay), 0.25 mM DCPIP, and 2 mg/ml porcine PDHc E1. The reaction mixture […]
was preincubated at 37 °C for 30 min, then the reaction was initiated by adding pyruvate to a final […]
concentration of 50 mM. To determine the half-maximal inhibitory concentration (IC 50 ), ThDP […]
concentration was lowered to 10 µM, and inhibitor concentration was varied (0.4-200 µM). Specific […]
activity was calculated using the molar extinction coefficient of DCPIP, 21 mM -1 cm-1.3 The enzyme […]
IC50 values were calculated from non-linear regression curve fitting using GraphPad Prism.

[2] = target: T2, S. cerevisiae PDC (Saccharomyces cerevisiae, UniProt P06169); assay: S. cerevisiae PDC inhibitory activity assay (DCPIP reduction); type: biochemical; details: compounds insufficiently soluble were excluded; for inhibition at 1500 µM: read-out: Inhibition (%) Yeast PDC
T2 construct: purchased Sigma
T2 sequence (P06169 2-563 limits assumed): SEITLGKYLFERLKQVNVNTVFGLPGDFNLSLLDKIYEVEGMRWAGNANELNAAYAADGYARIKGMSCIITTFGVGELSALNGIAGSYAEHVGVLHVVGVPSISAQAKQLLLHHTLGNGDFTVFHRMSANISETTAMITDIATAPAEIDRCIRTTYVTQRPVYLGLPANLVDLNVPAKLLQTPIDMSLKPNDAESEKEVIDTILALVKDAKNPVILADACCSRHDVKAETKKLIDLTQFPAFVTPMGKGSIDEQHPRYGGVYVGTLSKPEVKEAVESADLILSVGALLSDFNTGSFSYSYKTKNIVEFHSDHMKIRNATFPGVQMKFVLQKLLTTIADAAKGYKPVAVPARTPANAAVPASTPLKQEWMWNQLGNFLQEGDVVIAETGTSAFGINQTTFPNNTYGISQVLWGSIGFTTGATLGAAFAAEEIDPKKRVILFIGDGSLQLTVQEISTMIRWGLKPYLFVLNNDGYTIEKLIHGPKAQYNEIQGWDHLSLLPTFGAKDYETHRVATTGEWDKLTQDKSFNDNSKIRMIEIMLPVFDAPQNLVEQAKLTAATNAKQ
Description: S. cerevisiae PDC inhibitory activity assay. S. cerevisiae PDC was purchased from Sigma. Its activity was determined by monitoring DCPIP reduction at 600 nm using a microplate reader (CLARIOstar) and conducted as described 1,2 with some modifications. The percentage inhibition of compounds was assayed at a final concentration of 1500 µM. The reaction buffer (50 mM KH 2PO4 and 1 mM MgCl 2, pH 7) contained 300 µM ThDP (or 750 µM in the competition assay), 0.27 mM DCPIP, and 0.15 mg/ml S. cerevisiae PDC. The reaction mixture was preincubated at 37 °C for 60 min, then reaction was initiated by adding pyruvate to a final concentration of 70 mM. Specific activity was calculated using the molar extinction coefficient of DCPIP, 21 mM -1 cm -1.3 […]

[3] = [Compound] = 250 μM, [ThDP] = 50 μM
[4] = [Compound] = 1.5 mM, [ThDP] = 0.3 mM
[5] = increased ThDP: [Compound] = 250 μM, [ThDP] = 125 μM
[6] = increased ThDP: [Compound] = 1500 μM, [ThDP] = 750 μM

Row | SMILES | Inhibition (%) PDHc E1 [1, 3] | inhibition at 1500 µM [2, 4] | Inhibition (%) Yeast PDC [2, 4] | Inhibition (%) PDHc E1 [1, 5] | Inhibition (%) Yeast PDC [2, 6] | L.E. (ligand efficiency) PDHc E1 [1] | inhibition at 1500 µM [2, 6] | Ki [1]
1 | Cc1ncc(Cn2cc(CCC(=O)NO)nn2)c(N)n1 [Compound 24a] | 77 ± 3% | 41 ± 3% | – | – | – | – | – | –
2 | Cc1ncc(Cn2cc(CCNS(=O)(=O)C(F)(F)F)nn2)c(N)n1 [Compound 18a] | 50 ± 2% | < 20% | – | – | – | – | – | –
3 | Cc1ncc(Cn2cc(CCCC(=O)Nc3ccccc3N)nn2)c(N)n1 [Compound 26b] | 59 ± 2% | 28 ± 3% | – | – | – | – | – | –
4 | COc1ccccc1C(=O)NCCCCc1cn(Cc2cnc(C)nc2N)nn1 [Compound 22c] | 58 ± 2% | – | Insoluble | – | – | – | – | –
5 | COc1ccc(-c2cn(CCCc3cn(Cc4cnc(C)nc4N)nn3)nn2)cc1 [Compound 17b] | 71 ± 2% | – | Insoluble | 45 ± 3% | Insoluble | – | – | –
6 | Cc1ncc(Cn2cc(CCCn3cc(-c4ccccc4)nn3)nn2)c(N)n1 [Compound 15b] | 65 ± 4% | – | Insoluble | 40 ± 4% | Insoluble | – | – | –
7 | Cc1ncc(Cn2cc(CCCn3cc(-c4ccc(F)cc4)nn3)nn2)c(N)n1 [Compound 16b] | 66 ± 4% | – | Insoluble | 43 ± 2% | Insoluble | – | – | –
8 | Cc1ncc(Cn2cc(CCC(=O)Nc3ccccc3N)nn2)c(N)n1 [Compound 26a] | 75 ± 5% | < 20% | – | – | – | – | – | –
9 | Cc1ncc(Cn2cc(CCCC(=O)NO)nn2)c(N)n1 [Compound 24b] | > 90% | 65 ± 2% | – | 70 ± 3% | – | 0.50 | 42 ± 4% | –
10 | COc1ccccc1C(=O)NCCCc1cn(Cc2cnc(C)nc2N)nn1 [Compound 22b] | 58 ± 3% | – | Insoluble | – | – | – | – | –
11 | Cc1ncc(Cn2cc(CCCCNS(=O)(=O)C(F)(F)F)nn2)c(N)n1 [Compound 18c] | 71 ± 3% | – | Insoluble | – | – | – | – | –
12 | COc1cccc(C(=O)NCCCc2cn(Cc3cnc(C)nc3N)nn2)c1 [Compound 21b] | 61 ± 2% | 38 ± 5% | – | – | – | – | – | –
13 | Cc1ncc(Cn2cc(CCNC(=O)c3cccc(-c4noc(C(F)(F)F)n4)c3)nn2)c(N)n1 [Compound 19a] | 48 ± 3% | – | Insoluble | – | – | – | – | –
14 | Cc1ncc(Cn2cc(CCn3cc(-c4ccccc4)nn3)nn2)c(N)n1 [Compound 15a] | 45 ± 3% | – | Insoluble | <20% | Insoluble | – | – | –
15 | Cc1ncc(Cn2cc(CCn3cc(-c4ccc(F)cc4)nn3)nn2)c(N)n1 [Compound 16a] | 42 ± 2% | – | Insoluble | <20% | Insoluble | – | – | –
16 | COc1ccccc1C(=O)NCCc1cn(Cc2cnc(C)nc2N)nn1 [Compound 22a] | 83 ± 4% | 61 ± 4% | – | – | – | – | – | –

Row | SMILES | Inhibition (%) PDHc E1 [1, 3] | inhibition at 1500 µM [2, 4] | Inhibition (%) Yeast PDC [2, 4] | Inhibition (%) PDHc E1 [1, 5] | Inhibition (%) Yeast PDC [2, 6] | L.E. (ligand efficiency) PDHc E1 [1] | inhibition at 1500 µM [2, 6] | Ki [1]
17 | Cc1ncc(Cn2cc(CCNC(=O)c3cccc(C#N)c3)nn2)c(N)n1 [Compound 20a] | 46 ± 4% | < 20% | – | – | – | – | – | –
18 | Cc1ncc(Cn2cc(CCOC(=O)c3cccc(C#N)c3)nn2)c(N)n1 [Compound 14a] | 71 ± 4% | – | Insoluble | – | – | – | – | –
19 | Cc1ncc(Cn2cc(CCCCC(=O)NO)nn2)c(N)n1 [Compound 24c] | > 90% | 63 ± 4% | – | 73 ± 4% | – | 0.48 | 37 ± 4% | –
20 | Cc1ncc(Cn2cc(CCCCn3cc(-c4ccc(F)cc4)nn3)nn2)c(N)n1 [Compound 16c] | > 90% | – | Insoluble | 79 ± 2% | Insoluble | – | – | –
21 | COc1ccc(-c2cn(CCCCc3cn(Cc4cnc(C)nc4N)nn3)nn2)cc1 [Compound 17c] | > 90% | – | Insoluble | 82 ± 4% | Insoluble | 0.34 | – | 0.03 µM
22 | Cc1ncc(Cn2cc(CCCCO)nn2)c(N)n1 [Compound 9c] | 57 ± 2% | 33 ± 4% | – | – | – | – | – | –
23 | Cc1ncc(Cn2cc(CCO)nn2)c(N)n1 [Compound 9a] | 55 ± 2% | 37 ± 3% | – | – | – | – | – | –
24 | COc1cccc(C(=O)NCCCCc2cn(Cc3cnc(C)nc3N)nn2)c1 [Compound 21c] | 60 ± 5% | – | Insoluble | – | – | – | – | –
25 | COc1ccc(-c2cn(CCc3cn(Cc4cnc(C)nc4N)nn3)nn2)cc1 [Compound 17a] | 46 ± 4% | – | Insoluble | <20% | Insoluble | – | – | –
26 | Cc1ncc(Cn2cc(CCCNS(=O)(=O)C(F)(F)F)nn2)c(N)n1 [Compound 18b] | 55 ± 2% | 37 ± 4% | – | – | – | – | – | –
27 | Cc1ncc(Cn2cc(CCCCC(=O)Nc3ccccc3N)nn2)c(N)n1 [Compound 26c] | 64 ± 4% | < 20% | – | – | – | – | – | –
28 | Cc1ncc(Cn2cc(CCCCn3cc(-c4ccccc4)nn3)nn2)c(N)n1 [Compound 15c] | > 90% | – | Insoluble | 75 ± 4% | Insoluble | – | – | –
29 | Cc1ncc(Cn2cc(CCCO)nn2)c(N)n1 [Compound 9b] | 52 ± 3% | 35 ± 2% | – | – | – | – | – | –
30 | COc1cccc(C(=O)NCCc2cn(Cc3cnc(C)nc3N)nn2)c1 [Compound 21a] | 67 ± 4% | 48 ± 2% | – | – | – | – | – | –
31 | Cc1ncc(Cn2cc(CCOC(=O)c3cccc(-c4noc(C(F)(F)F)n4)c3)nn2)c(N)n1 [Compound 13a] | 72 ± 2% | – | Insoluble | – | – | – | – | –
32 | Cc1ncc(C[n+]2csc(CCO[P@@](=O)(O)OP(=O)(O)O)c2C)c(O)n1 [OxThDP 7b, oxythiamine diphosphate, reference compound] | > 90% | 81 ± 3% | – | 75 ± 3% | – | – | 63 ± 3% | –
